Assays:
[1] = system: U-698-M; assay: Bliss excess, mean over the matrix (fraction); higher = more synergy; conditions: U-[…], B-Cell Non-Hodgkin's Lymphoma
How it was run: (§1)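 Bliss excess equals the observed combination effect minus the expected value EA + EB − EA·EB, where EA and EB are the effects of each agent alone. Combination Emax is the second-highest inhibition within the matrix. Inhibition was scaled from CellTiter-Glo 2.0 luminescence, with 0 set by vehicle wells and 1 by blank wells, after 72 hours of two-drug dosing of cells plated in 1536-well plates.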

[2] = system: U-698-M; assay: combination Emax (second highest fraction inhibited in the dose matrix, 72 h); higher = more inhibition; conditions: B-Cell Non-Hodgkin's Lymphoma
How it was run: as §1

[3] = first compound max 0.3 µM, partner max 10 µM, 7x7
[4] = first compound max 1 µM, partner max 1 µM
[5] = first compound max 1 µM, partner max 1 µM, 7x7
[6] = first compound max 1 µM, partner max 1 µM, 7x7, may be a limit of the assay
[7] = first compound max 1 µM, partner max 10 µM, 7x7
[8] = first compound max 10 µM, partner max 0.3 µM, 7x7
[9] = first compound max 1 µM, partner max 10 µM, 7x7, may be a limit of the assay
[10] = first compound max 1 µM, partner max 3 µM, 7x7
[11] = first compound max 1 µM, partner max 3 µM, 7x7, may be a limit of the assay
[12] = first compound max 10 µM, partner max 10 µM, 7x7
[13] = first compound max 10 µM, partner max 1 µM
[14] = first compound max 10 µM, partner max 20 µM, 7x7

## CCc1c2c(nc3ccc(O)cc13)-c1cc3c(c(=O)n1C2)COC(=O)[C@]3(O)CC [SN-38] + O=C(c1cc(Cc2n[nH]c(=O)c3ccccc23)ccc1F)N1CCN(C(=O)C2CC2)CC1 [Olaparib]
[1]; [3]
  Bliss excess: 0.0095
[2]; [3]
  combination Emax: 0.813

## COc1nnc2ccc(N3CCC(c4ccc(OCCN5CCN(C)C(=O)[C@H]5C)cc4)CC3)nn12 [AZD5153] + C=CCn1c(=O)c2cnc(Nc3ccc(N4CCN(C)CC4)cc3)nc2n1-c1cccc(C(C)(C)O)n1 [AZD1775]
[1]; [4]
  Bliss excess: -0.0574
[2]; [4]
  combination Emax: 0.961

## COc1cccc(OCCCN)c1-c1cc(Nc2cnc(C#N)cn2)n[nH]1 [Prexasertib] + CN(C)CCCOc1ccc(-c2ccc3ncc4c(c3c2)n(C2CCOCC2)c(=O)n4C)cn1 [AZD0156]
[1]; [5]
  Bliss excess: 0.0361
[2]; [6]
  combination Emax: 1

## CC1(C)CCC(CN2CCN(c3ccc(C(=O)NS(=O)(=O)c4ccc(NCC5CCOCC5)c([N+](=O)[O-])c4)c(Oc4cnc5[nH]ccc5c4)c3)CC2)=C(c2ccc(Cl)cc2)C1 [Venetoclax] + COc1cc(Nc2ncc3c(n2)-c2ccc(Cl)cc2C(c2c(F)cccc2OC)=NC3)ccc1C(=O)O [Alisertib]
[1]; [7]
  Bliss excess: 0.0827
[2]; [7]
  combination Emax: 0.592

## CC1(C)CCC(CN2CCN(c3ccc(C(=O)NS(=O)(=O)c4ccc(NCC5CCOCC5)c([N+](=O)[O-])c4)c(Oc4cnc5[nH]ccc5c4)c3)CC2)=C(c2ccc(Cl)cc2)C1 [Venetoclax] + CN(C)CCCOc1ccc(-c2ccc3ncc4c(c3c2)n(C2CCOCC2)c(=O)n4C)cn1 [AZD0156]
[1]; [5]
  Bliss excess: 0.0133
[2]; [5]
  combination Emax: 0.72

## C[C@@H]1COCCN1c1cc(C2([S@](C)(=N)=O)CC2)nc(-c2ccnc3[nH]ccc23)n1 [AZD6738] + Nc1ccn([C@@H]2O[C@H](CO)[C@@H](O)C2(F)F)c(=O)n1 [Gemcitabine]
[1]; [8]
  Bliss excess: 0.0526
[2]; [8]
  combination Emax: 0.871

## COc1cccc(OCCCN)c1-c1cc(Nc2cnc(C#N)cn2)n[nH]1 [Prexasertib] + CCc1c2c(nc3ccc(O)cc13)-c1cc3c(c(=O)n1C2)COC(=O)[C@]3(O)CC [SN-38]
[1]; first compound max 1 µM, partner max 0.3 µM, 7x7
  Bliss excess: 0.0237
[2]; first compound max 1 µM, partner max 0.3 µM, 7x7, may be a limit of the assay
  combination Emax: 1

## Cc1c2c(nn1C)CSCc1cc(n(C)n1)CSc1cc(c3ccccc3c1)OCCCc1c(C(=O)O)n(C)c3c-2c(Cl)ccc13 [AZD5991] + Cc1cc2ncnn2cc1Nc1ncc2c(n1)n(C1CCOCC1)c(=O)n2C [AZD7648]
[1]; [7]
  Bliss excess: 0.0183
[2]; [9]
  combination Emax: 1

## CN(CCO)CC[C@H](CSc1ccccc1)Nc1ccc(S(=O)(=O)NC(=O)c2ccc(N3CCC([C@@H](O)c4ccccc4-c4ccc(Cl)cc4)CC3)cc2)cc1S(=O)(=O)C(F)(F)F [AZD4320] + CC(=O)O[C@H]1C(=O)[C@@]2(C)[C@H]([C@H](OC(=O)c3ccccc3)[C@]3(O)C[C@H](OC(=O)[C@H](O)[C@@H](NC(=O)c4ccccc4)c4ccccc4)C(C)=C1C3(C)C)[C@]1(OC(C)=O)CO[C@@H]1C[C@@H]2O [Paclitaxel]
[1]; [10]
  Bliss excess: -0.0109
[2]; [11]
  combination Emax: 1

## NC1(C(=O)N[C@@H](CCO)c2ccc(Cl)cc2)CCN(c2ncnc3[nH]ccc23)CC1 [Capivasertib] + CC(=O)c1c(C)c2cnc(Nc3ccc(N4CCNCC4)cn3)nc2n(C2CCCC2)c1=O [Palbociclib]
[1]; [12]
  Bliss excess: 0.0018
[2]; [12]
  combination Emax: 0.532

## Cc1c2c(nn1C)CSCc1cc(n(C)n1)CSc1cc(c3ccccc3c1)OCCCc1c(C(=O)O)n(C)c3c-2c(Cl)ccc13 [AZD5991] + CCN(CCO)CCCOc1ccc2c(Nc3cc(CC(=O)Nc4cccc(F)c4)[nH]n3)ncnc2c1 [AZD2811]
[1]; [5]
  Bliss excess: 0.0024
[2]; [6]
  combination Emax: 1

## Cc1c2c(nn1C)CSCc1cc(n(C)n1)CSc1cc(c3ccccc3c1)OCCCc1c(C(=O)O)n(C)c3c-2c(Cl)ccc13 [AZD5991] + Cn1cnc2c(F)c(Nc3ccc(Br)cc3Cl)c(C(=O)NOCCO)cc21 [Selumetinib]
[1]; [10]
  Bliss excess: -0.0034
[2]; [11]
  combination Emax: 1

## CC1(C)CCC(CN2CCN(c3ccc(C(=O)NS(=O)(=O)c4ccc(NCC5CCOCC5)c([N+](=O)[O-])c4)c(Oc4cnc5[nH]ccc5c4)c3)CC2)=C(c2ccc(Cl)cc2)C1 [Venetoclax] + C1CN(CCC1(C(=O)N[C@@H](CCO)C2=CC=C(C=C2)Cl)N)C3=NC=NC4=C3C=CN4 [Capivasertib]
[1]; [10]
  Bliss excess: -0.0112
[2]; [10]
  combination Emax: 0.756

## CS(=O)(=O)CCNCc1ccc(-c2ccc3ncnc(Nc4ccc(OCc5cccc(F)c5)c(Cl)c4)c3c2)o1 [Lapatinib] + C[C@@H](Oc1cc(-c2cnn(C3CCNCC3)c2)cnc1N)c1c(Cl)ccc(F)c1Cl [Crizotinib]
[1]; [12]
  Bliss excess: -0.0653
[2]; [12]
  combination Emax: 0.934

## C[C@@H](Nc1cc(F)cc(F)c1)c1cc(C(=O)N(C)C)cc2c(=O)cc(N3CCOCC3)oc12 [AZD8186] + CC(=O)c1c(C)c2cnc(Nc3ccc(N4CCNCC4)cn3)nc2n(C2CCCC2)c1=O [Palbociclib]
[1]; [12]
  Bliss excess: -0.0019
[2]; [12]
  combination Emax: 0.499

## Cc1c2c(nn1C)CSCc1cc(n(C)n1)CSc1cc(c3ccccc3c1)OCCCc1c(C(=O)O)n(C)c3c-2c(Cl)ccc13 [AZD5991] + C1CN(CCC1(C(=O)N[C@@H](CCO)C2=CC=C(C=C2)Cl)N)C3=NC=NC4=C3C=CN4 [Capivasertib]
[1]; [10]
  Bliss excess: -0.0016
[2]; [11]
  combination Emax: 1

## Cc1c2c(nn1C)CSCc1cc(n(C)n1)CSc1cc(c3ccccc3c1)OCCCc1c(C(=O)O)n(C)c3c-2c(Cl)ccc13 [AZD5991] + CS(=O)(=O)CCNCc1ccc(-c2ccc3ncnc(Nc4ccc(OCc5cccc(F)c5)c(Cl)c4)c3c2)o1 [Lapatinib]
[1]; [7]
  Bliss excess: 0.0295
[2]; [7]
  combination Emax: 0.992

## CC1(C)CCC(CN2CCN(c3ccc(C(=O)NS(=O)(=O)c4ccc(NCC5CCOCC5)c([N+](=O)[O-])c4)c(Oc4cnc5[nH]ccc5c4)c3)CC2)=C(c2ccc(Cl)cc2)C1 [Venetoclax] + Cn1cnc2c(F)c(Nc3ccc(Br)cc3Cl)c(C(=O)NOCCO)cc21 [Selumetinib]
[1]; [10]
  Bliss excess: -0.0473
[2]; [10]
  combination Emax: 0.408

## Cc1cc2ncnn2cc1Nc1ncc2c(n1)n(C1CCOCC1)c(=O)n2C [AZD7648] + C=CCn1c(=O)c2cnc(Nc3ccc(N4CCN(C)CC4)cc3)nc2n1-c1cccc(C(C)(C)O)n1 [AZD1775]
[1]; [13]
  Bliss excess: -0.0156
[2]; [13]
  combination Emax: 0.971

## COc1nnc2ccc(N3CCC(c4ccc(OCCN5CCN(C)C(=O)[C@H]5C)cc4)CC3)nn12 [AZD5153] + CCN(CCO)CCCOc1ccc2c(Nc3cc(CC(=O)Nc4cccc(F)c4)[nH]n3)ncnc2c1 [AZD2811]
[1]; [5]
  Bliss excess: -0.0563
[2]; [5]
  combination Emax: 0.673

## Cc1c2c(nn1C)CSCc1cc(n(C)n1)CSc1cc(c3ccccc3c1)OCCCc1c(C(=O)O)n(C)c3c-2c(Cl)ccc13 [AZD5991] + C[C@@H](Nc1cc(F)cc(F)c1)c1cc(C(=O)N(C)C)cc2c(=O)cc(N3CCOCC3)oc12 [AZD8186]
[1]; [10]
  Bliss excess: -0.0258
[2]; [11]
  combination Emax: 1

## Cn1cnc2c(F)c(Nc3ccc(Br)cc3Cl)c(C(=O)NOCCO)cc21 [Selumetinib] + C=CCn1c(=O)c2cnc(Nc3ccc(N4CCN(C)CC4)cc3)nc2n1-c1cccc(C(C)(C)O)n1 [AZD1775]
[1]; [13]
  Bliss excess: -0.0472
[2]; [13]
  combination Emax: 0.892

## CN(CCO)CC[C@H](CSc1ccccc1)Nc1ccc(S(=O)(=O)NC(=O)c2ccc(N3CCC([C@@H](O)c4ccccc4-c4ccc(Cl)cc4)CC3)cc2)cc1S(=O)(=O)C(F)(F)F [AZD4320] + CN(C)CCCOc1ccc(-c2ccc3ncc4c(c3c2)n(C2CCOCC2)c(=O)n4C)cn1 [AZD0156]
[1]; [5]
  Bliss excess: -0.0291
[2]; [5]
  combination Emax: 0.183

## COc1cccc(OCCCN)c1-c1cc(Nc2cnc(C#N)cn2)n[nH]1 [Prexasertib] + C=CCn1c(=O)c2cnc(Nc3ccc(N4CCN(C)CC4)cc3)nc2n1-c1cccc(C(C)(C)O)n1 [AZD1775]
[1]; [4]
  Bliss excess: 0.0762
[2]; first compound max 1 µM, partner max 1 µM, may be a limit of the assay
  combination Emax: 1

## NC1(C(=O)N[C@@H](CCO)c2ccc(Cl)cc2)CCN(c2ncnc3[nH]ccc23)CC1 [Capivasertib] + C[C@@H]1COCCN1C2=NC(=NC(=C2)C3(CC3)[S@](=N)(=O)C)C4=C5C=CNC5=NC=C4 [AZD6738]
[1]; [12]
  Bliss excess: -0.0275
[2]; [12]
  combination Emax: 0.909

## COc1nnc2ccc(N3CCC(c4ccc(OCCN5CCN(C)C(=O)[C@H]5C)cc4)CC3)nn12 [AZD5153] + Cn1cnc2c(F)c(Nc3ccc(Br)cc3Cl)c(C(=O)NOCCO)cc21 [Selumetinib]
[1]; [7]
  Bliss excess: -0.0573
[2]; [7]
  combination Emax: 0.622

## Cc1c2c(nn1C)CSCc1cc(n(C)n1)CSc1cc(c3ccccc3c1)OCCCc1c(C(=O)O)n(C)c3c-2c(Cl)ccc13 [AZD5991] + C[C@@H]1COCCN1C2=NC(=NC(=C2)C3(CC3)[S@](=N)(=O)C)C4=C5C=CNC5=NC=C4 [AZD6738]
[1]; [7]
  Bliss excess: -0.0194
[2]; [9]
  combination Emax: 1

## N#Cc1cnc(Nc2cc(NC[C@H]3CNCCO3)c(C(F)(F)F)cn2)cn1 [SRA737] + O=c1[nH]cc(F)c(=O)[nH]1 [5-Fluorouracil]
[1]; [14]
  Bliss excess: -0.0673
[2]; [14]
  combination Emax: 0.798
